According to patent publication US20190282692A1, “SELECTIVE LOCAL INHIBITION OF TNFR1-MEDIATED FUNCTIONS AT THE SITE OF ANTIGEN/ALLERGEN PRESENTATION” (priority 2012, published 2019):
Values joined by “and” are separate entries in the source; they are usually repeats but may differ in a detail not shown here. Equal entries are not always repeated.

Tests used:
[1] = tested on: CD4+ T cells purified from human peripheral blood; conditions: cited from earlier work
[2] = tested on: NF-kappa B translocation; conditions: read-out: concentration for 50% inhibition of NF-kappa B translocation; cited from earlier work
[3] = tested on: IL-4 gene transcription; conditions: read-out: concentration for 50% inhibition of IL-4 gene transcription; cited from earlier work
[4] = tested on: isolated rat cardiomyocytes; conditions: cited from earlier work; for reproduction of the effects of in vivo NAC treatment (glutathione repletion, unmasking of TNFR2-mediated effects): 50 μmol/L; for protection against deleterious effects of TNF-alpha on contraction: preincubation 2-3 hours, 50 μM GSM or exogenously added NAC, cardiomyocytes from control rats
[5] = cited from earlier work
[6] = tested on: purified tonsillar B cells; conditions: dose-dependent, significant with 0.5 mM, maximal with 20 mM NAC, 14 days; cited from earlier work
[7] = tested on: purified peripheral blood T cells; conditions: cited from earlier work
[8] = cited from earlier work; remark: listed apart in the source
[9] = tested on: purified peripheral blood T cells; conditions: 20 mM NAC, Con A 10 μg/ml; cited from earlier work
[10] = 8 days, cited from earlier work
[11] = tested on: T cells purified from human peripheral blood; conditions: 20 mM NAC, Con A 2.5 μg/ml, 40 hours; cited from earlier work
[12] = tested on: purified tonsillar B cells; conditions: 20 mM NAC; cited from earlier work
[13] = 600 mg to 1000 mg NAC three times daily orally, 4 weeks; cited from earlier work
[14] = tested on: T cells purified from human peripheral blood; conditions: 10 mM NAC, after two passages; cited from earlier work
[15] = 1800 mg/day oral, one year, added to standard therapy; cited from earlier work
[16] = tested on: left ventricle; conditions: 3-day NAC treatment 120 mg/kg/day, 2-month post-myocardial infarction rats; cited from earlier work
[17] = tested on: resting T cells; conditions: resting T cells from seven donors, 3 day period, NAC 1 mM to 20 mM; cited from earlier work
[18] = tested on: TNFR2-mediated activation of NF-kappa B; conditions: high concentrations; cited from earlier work
[19] = tested on: TNFR1-mediated activation of NF-kappa B; conditions: cited from earlier work
[20] = in vivo; cited from earlier work
[21] = tested on: allergen-induced airways hyper-responsiveness; conditions: cited from earlier work
[22] = tested on: late phase asthmatic response to allergen challenge; conditions: cited from earlier work
[23] = target: T1, TNF-alpha (Mus musculus, UniProt P06804); conditions: without inhibiting Teff activation; cited from earlier work
T1 construct: host or cells: mouse, in vivo
T1 sequence (P06804 80-235 limits assumed): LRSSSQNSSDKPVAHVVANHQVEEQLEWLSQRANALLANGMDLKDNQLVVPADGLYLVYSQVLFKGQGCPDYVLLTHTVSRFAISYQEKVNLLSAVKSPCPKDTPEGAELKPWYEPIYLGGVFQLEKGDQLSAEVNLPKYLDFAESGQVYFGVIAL

[24] = tested on: TNF; type: in vivo, human; conditions: for side effects of anti-TNF treatment in the patient: one patient with ankylosing spondylitis; for development of allergen-specific sIgG4 during specific immunotherapy: one vespid venom-allergic patient, SIT 2003-2009
Source text: Case report from the Allergy Center of the Technical University of Munich (TUM), Germany. A patient (at the first visit in July 2003) with systemic vespid venom allergy was under anti-TNF therapy with the soluble TNF receptor etanercept (Enbrel®) for ankolysing spondylitis since July 2002 (see FIG. 9). In July/2003, the patient experienced a mild to moderate anaphylactic reaction (grade 1-2 according to Ring and Messmer) with generalized urticaria, subjective breathing problems and dizziness after a wasp sting.
No sIgE was detectable against Ves v 2 and Ves v 3.
Similar results were also obtained in the ELISA analysis, where sIgG4 levels were detectable already in 2003 before SIT mainly against Ves v 1 and Ves v 5, which decreased slightly over time during SIT.
Discussion. […] Even amongst the group of SIT therapy failures/non-responders, we routinely observed an increase of sIgG4 levels to at least one allergen. Thus, this patient was the first and only one ever without any increase in sIgG4 to any of the vespid venom allergens. […] To our knowledge this was the only patient worldwide that received immunotherapy under anti-TNF inhibition treatment. Since there are several lines of evidence that TNFR2-mediated signaling is essential for the induction of tolerance, inhibition of TNFR2 appears to be responsible for the inhibitory effect of anti-TNF-alpha therapy on the efficacy of specific immunotherapy.

[25] = tested on: C3 convertase; conditions: cited from earlier work

Question: For `CC(=O)Oc1ccccc1C(=O)O` [ASA, acetylsalicylic acid], which “inhibition of IL-4 secretion” value ([1]; 1 mM ASA) is on record?
Answer: Its value is 47%.

Question: What about the “production of IFNγ” value ([1]; ASA 0.1 mM-3 mM) of the same molecule?
Answer: The value was “did not affect”.

Question: What about the “production of IL-2” value ([1]; ASA 0.1 mM-3 mM) of the same molecule?
Answer: The value was “did not affect”.

Question: What about the “production of IL-13” value ([1]; ASA 0.1 mM-3 mM) of the same molecule?
Answer: The value was “did not affect”.

Question: What about the IC50 [2] of the same molecule?
Answer: Its IC50 is about 3000 µM.

Question: And the IC50 [3]?
Answer: Its IC50 is about 1000 µM.

Question: Which “reproduction of the effects of in vivo NAC treatment” value ([4]; incubation 2-3 hours, 10 mmol/L) does the source give for `N[C@@H](CCC(=O)N[C@@H](CS)C(=O)NCC(=O)O)C(=O)O` [GSH, glutathione] here?
Answer: The value was “could not reproduce the effects of in vivo NAC treatment”.

Question: With `CSC[C@H](NC(=O)CC[C@H](N)C(=O)O)C(=O)NCC(=O)O` [GSM, S-Methylglutathione] as the molecule, how does the “reproduction of the effects of in vivo NAC treatment (glutathione repletion, unmasking of TNFR2-mediated effects)” value ([4]; incubation 2-3 hours) read?
Answer: The value was “reproduce the effects of in vivo NAC treatment”.

Question: And the “protection against deleterious effects of TNF-alpha on contraction” value [4]?
Answer: The value was “protected against the deleterious effects of TNF-alpha on contraction”.

Question: And the solubility in water [5]?
Answer: The solubility in water was 2.61 g/liter and 8.1 mM.

Question: Which “IgE production by B cells” value [6] does the source give for `CC(=O)N[C@@H](CS)C(=O)O` [NAC, N-acetyl-L-cysteine] here?
Answer: The value was “decreased”.

Question: And the “IgG4 production by B cells” value [6]?
Answer: Its value is “decreased”.

Question: What about the “IFNγ production by T cells” value ([7]; 0.5-20 mM NAC) of the same molecule?
Answer: The value was “not affected”.

Question: What about the “IL-5 production by T cells” value ([7]; 0.5-20 mM NAC) of the same molecule?
Answer: Its value is “not affected”.

Question: And the “IL-4 production by T cells” value ([7]; maximal at 20 mM NAC)?
Answer: Its value is “decreased in a dose-dependent manner”.

Question: And the “IL-2 production by T cells” value ([7]; up to 5 mM NAC)?
Answer: Its value is “enhanced”.

Question: And the median tmax ([8]; human, in vivo)?
Answer: Its median tmax is 1.0 h.

Question: What about the highest non-toxic dose ([8]; in most of the subjects) of the same molecule?
Answer: Its highest non-toxic dose is 800 mg/m^2/day.

Question: And the “plasma t1/2” value ([8]; monoexponential plasma decay)?
Answer: The value was 2.4 h.

Question: And the “increase in T cell proliferation” value [9]?
Answer: Its value is “approximately 4 fold”.

Question: What about the “decrease of ovalbumin-specific IgE” value ([10]; drinking water 0.5 g/liter NAC) of the same molecule?
Answer: The value was about 30%.

Question: And the “decrease of ovalbumin-specific IgG1” value ([10]; drinking water 0.5 g/liter NAC)?
Answer: Its value is about 30%.

Question: And the “synthesis of other Ig isotypes” value ([10]; drinking water 1 g NAC/liter)?
Answer: Its value is “not significantly affected”.

Question: And the “IgE and IgG1 antibody responses to ovalbumin” value ([10]; water containing 0.5-2.0 g/l NAC, 1 μg ovalbumin on aluminum hydroxide i.p.)?
Answer: The value was “decreased”.

Question: What about the “enhancement of IL-2 production by T cells” value [11] of the same molecule?
Answer: Its value is “approximately 1.5 fold”.

Question: What about the “increase in B cell proliferation” value [12] of the same molecule?
Answer: The value was “at least 5 fold”.

Question: And the “GSH level in blood neutrophils, airway neutrophil count and elastase activity” value [13]?
Answer: The value was “effective in augmenting the GSH level in blood neutrophils and decreasing the airway neutrophil count and elastase activity”.

Question: And the “stimulation of growth of peripheral blood T cell cultures” value [14]?
Answer: The value was 4-6 fold.

Question: And the “primary end points including vital capacity” value [15]?
Answer: The value was “better”.

Question: And the “reproduction of the effects of in vivo NAC treatment (glutathione repletion, unmasking of TNFR2-mediated effects)” value ([4]; incubation 2-3 hours)?
Answer: The value was “could not reproduce the effects of in vivo NAC treatment”.

Question: What about the “protection against deleterious effects of TNF-alpha on contraction” value [4] of the same molecule?
Answer: The value was “not protected”.

Question: And the “GSH content of the left ventricle, % of control level in sham rats” value [16]?
Answer: Its value is 75%.

Question: What about the cytotoxicity [17] of the same molecule?
Answer: Its cytotoxicity is “nontoxic”.

Question: Which results are given for `O=C([O-])c1ccccc1O.[Na+]` [SA, sodium salicylate]?
Answer: inhibition of TNFR2-mediated activation of NF-kappa B [18]: but not TNFR2-mediated activation of NF-kappa B; salicylate dose required for inhibition of TNFR1-mediated activation of NF-kappa B [19]: 10 to 20 mM

Question: For `O=C(O)c1ccccc1O` [salicylate], which “level at which tinnitus may occasionally occur” value [20] is on record?
Answer: The value was at least 95 µg/mL.

Question: Which “cutaneous wheal response and circulating allergen-specific IgE” value ([21]; subcutaneous administration for 6 weeks or more) does the source give for IL-4 (R121D/Y124D) here?
Answer: The value was “reduced”.

Question: And the allergen-induced airways hyper-responsiveness ([21]; subcutaneously or via nebulization)?
Answer: Its allergen-induced airways hyper-responsiveness is “protect allergic cynomolgus monkeys from allergen-induced airways hyper-responsiveness”.

Question: And the “course of late asthmatic response after experimental allergen challenge” value ([22]; asthmatic patients)?
Answer: The value was “positively affect”.

Question: And the adverse events ([22]; subcutaneous injection up to 30 mg for up to 13 weeks or inhalation up to 60 mg for up to 4 weeks)?
Answer: Its adverse events is “few adverse events”.

Question: Which “Teff-mediated Treg boost” value [23] does the source give for etanercept here?
Answer: Its value is “significantly reduced the Teff-mediated Treg boost”.

Question: And the “side effects of anti-TNF treatment in the patient” value [24]?
Answer: Its value is “increasing iritis symptoms”.

Question: What about the “development of allergen-specific sIgG4 during specific immunotherapy” value [24] of the same molecule?
Answer: The value was “interferes with the development of allergen-specific sIgG4”.

Question: For hC3: human complement component C3, which “half-life of C3 convertase” value [25] is on record?
Answer: The value was 1.5 min.

Question: With infliximab as the molecule, how does the “side effects of anti-TNF treatment in the patient” value [24] read?
Answer: Its value is “without major side effects”.

Question: What about the “development of allergen-specific sIgG4 during specific immunotherapy” value [24] of the same molecule?
Answer: The value was “interferes with the development of allergen-specific sIgG4”.
